Laboratory results as given in PMC7265447, “Ultra-rapid glutathionylation of chymotrypsinogen in its molten globule-like conformation: A comparison to archaeal proteins” (Scientific Reports, 2020).

Columns and labels:
[1] = target: T1, reduced Bacterioferritin Comigratory Protein 1 (rBcp1) (Saccharolobus solfataricus, UniProt Q97WP9); assay: loss of reactive Cys, DTNB titration; format: binding; conditions: pH 7.4, 0.2 M urea, 25 °C, covalent, 1 -SH/mol
T1 construct: gene bcp-1; recombinant in E. coli BL21(DE3)-RIL (pET30Bcp1), HisTrap purified, 18 kDa band
T1 sequence (Q97WP9 entry or part of it): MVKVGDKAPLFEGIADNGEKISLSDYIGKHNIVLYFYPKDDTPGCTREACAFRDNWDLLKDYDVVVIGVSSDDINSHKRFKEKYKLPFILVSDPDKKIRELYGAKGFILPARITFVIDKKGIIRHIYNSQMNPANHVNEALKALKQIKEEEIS
Description: loss of reactive Cys, DTNB titration on reduced Bacterioferritin Comigratory Protein 1 (rBcp1)

[2] = target: T2, reduced Protein Disulphide Oxidoreductase (rSsPDO) (Saccharolobus solfataricus, UniProt Q980T5); assay: loss of reactive Cys, DTNB titration; format: binding; conditions: pH 7.4, 0.4 M urea, 25 °C, covalent, 2 -SH/mol
T2 construct: gene SSO0192; recombinant in E. coli, HisTrap and Resource Q purified, about 27 kDa band
T2 sequence (Q980T5 1-233): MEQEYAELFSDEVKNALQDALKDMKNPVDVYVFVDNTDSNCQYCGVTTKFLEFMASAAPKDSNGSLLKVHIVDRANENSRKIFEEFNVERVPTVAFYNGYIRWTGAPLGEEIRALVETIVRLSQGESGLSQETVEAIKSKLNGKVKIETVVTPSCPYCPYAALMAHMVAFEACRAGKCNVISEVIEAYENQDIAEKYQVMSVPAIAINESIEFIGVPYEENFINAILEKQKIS
Description: loss of reactive Cys, DTNB titration on reduced Protein Disulphide Oxidoreductase (rSsPDO)

Cys45 = Cys45 (UniProt position 45, DDTPGCTREAS); assay: chemical modification; conditions: 25 °C; 20 mM Britton-Robinson buffers; reduced, molten globule-like conformation in 0.2 M urea; 2.6 µM protein
[3] = target: T2, reduced Protein Disulphide Oxidoreductase (rSsPDO); assay: Cys-DNB adduct absorbance at […] nm; format: binding; conditions: pH 7.4, 0.4 M urea, 25 °C, covalent, 3 -SH/mol
[4] = target: T3, reduced α-chymotrypsinogen A (rChTg) (Bos taurus, UniProt P00766); assay: Cys-DNB adduct absorbance at […] nm; format: binding; conditions: pH 5.0, 0.28 M urea, 25 °C; reduced protein; covalent; average of 10 -SH
[5] = target: T1, reduced Bacterioferritin Comigratory Protein 1 (rBcp1); assay: Cys-DNB adduct absorbance at […] nm; format: binding; conditions: pH 7.4, 0.12 M urea, 25 °C, covalent, 1 -SH/mol
[6] = target: T1, reduced Bacterioferritin Comigratory Protein 1 (rBcp1); assay: Cys-NBD adduct absorbance at […] nm; format: binding; conditions: pH 7.4, 0.12 M urea, 25 °C, covalent, 1 -SH/mol
[7] = target: T2, reduced Protein Disulphide Oxidoreductase (rSsPDO); assay: Cys-NBD adduct absorbance at […] nm; format: binding; conditions: pH 7.4, 0.4 M urea, 25 °C, covalent, 2 -SH/mol
[8] = target: T3, reduced α-chymotrypsinogen A (rChTg); assay: Cys-NBD adduct absorbance at […] nm; format: binding; conditions: pH 5.0, 0.28 M urea, 25 °C; reduced protein; covalent; average of 10 -SH
[9] = target: T3, reduced α-chymotrypsinogen A (rChTg); assay: thiol loss, DTNB titration; format: binding; conditions: pH 5.0, 0.2 M urea, 25 °C; reduced protein; covalent; 8 -SH/mol
Description: thiol loss, DTNB titration on reduced α-chymotrypsinogen A (rChTg)

Cys50 = Cys50 (UniProt position 50, STREACAFRDN); assay: chemical modification; conditions: 25 °C; 20 mM Britton-Robinson buffers; reduced, molten globule-like conformation in 0.2 M urea; 2.6 µM protein

## NCCSSCCN [cystamine]
[1]
  Reduced Bcp1 / k (M^-1 s^-1) (-SH/mole Bcp1): 33 ± 3 M⁻¹ s⁻¹
[2]
  Reduced SsPDO / k (M^-1 s^-1) (-SH/mole SsPDO): 20 ± 2 M⁻¹ s⁻¹

## Bacterioferritin comigratory protein 1 (Bcp1) C50S mutant, reduced (rC50S) (Sulfolobus solfataricus (Saccharolobus solfataricus); C50S)
Cys45
  pKa: 7.9 ± 0.1

## O=[N+]([O-])c1ccc(Cl)c([N+](=O)[O-])c1 [CDNB, 1-chloro-2,4-dinitrobenzene]
[3]
  Reduced SsPDO / k (M^-1 s^-1) (-SH/mole SsPDO): 1.6 ± 0.1 M⁻¹ s⁻¹
[4]
  Reduced ChTg / k (M^-1 s^-1) (-SH/mol ChTg): 0.19 ± 0.01 M⁻¹ s⁻¹
[5]
  Reduced Bcp1 / k (M^-1 s^-1) (-SH/mole Bcp1): 0.55 ± 0.03 M⁻¹ s⁻¹

## O=[N+]([O-])c1ccc(Cl)c2nonc12 [NBD-Cl, 4-chloro-7-nitrobenzofurazan]
[6]
  Reduced Bcp1 / k (M^-1 s^-1) (-SH/mole Bcp1): 27 ± 3 M⁻¹ s⁻¹
[7]
  Reduced SsPDO / k (M^-1 s^-1) (-SH/mole SsPDO): 72 ± 3 M⁻¹ s⁻¹
[8]
  Reduced ChTg / k (M^-1 s^-1) (-SH/mol ChTg): 12.6 ± 0.5 M⁻¹ s⁻¹

## N[C@@H](CCSSCC[C@H](N)C(=O)O)C(=O)O [homocystine]
[1]
  Reduced Bcp1 / k (M^-1 s^-1) (-SH/mole Bcp1): 15 ± 1 M⁻¹ s⁻¹
[2]
  Reduced SsPDO / k (M^-1 s^-1) (-SH/mole SsPDO): 6 ± 1 M⁻¹ s⁻¹

## N[C@@H](CSSC[C@H](N)C(=O)O)C(=O)O [cystine]
[1]
  Reduced Bcp1 / k (M^-1 s^-1) (-SH/mole Bcp1): 115 ± 10 M⁻¹ s⁻¹
[2]
  Reduced SsPDO / k (M^-1 s^-1) (-SH/mole SsPDO): 10 ± 2 M⁻¹ s⁻¹
[9]
  Reduced ChTg / k (M^-1 s^-1) (-SH/mol ChTg): 0.56 ± 0.02 M⁻¹ s⁻¹

## Bacterioferritin comigratory protein 1 (Bcp1) C45S mutant, reduced (rC45S) (Sulfolobus solfataricus (Saccharolobus solfataricus); C45S)
Cys50
  pKa: 7.6 ± 0.1
